This note sets out measurements from PMC5234788 (PLoS ONE, 2017).

For one experiment, the system named is T1, Dopamine, D3.
T1 construct: Caliper Lifescience
Put plainly: Radio-ligand binding assay, Dopamine D3. The note with it: 10 μM l-THBr. As for the experimental part: (§1) To determine the possible targets of l-THBr action, the binding affinities of l-THBr to neurotransmitter receptors known to be involved in sedation, hypnosis and anxiety were investigated. Radio-ligand binding assays were performed by Caliper Lifescience (Hopkinton, MA, USA). The screening was carried out at a concentration of 10 μM l–THBr to test its ability to inhibit the binding of radioligands to their corresponding receptors. The results were expressed as percentage of inhibition of labeled ligand binding to individual receptors. Significant binding activity was defined as ≥50%.

The subject of the next experiment is T2, Dopamine, D4.4 (h).
T2 construct: Caliper Lifescience
As to the kind of experiment: Radio-ligand binding assay, Dopamine D4.4. The note with it: 10 μM l-THBr. Details: species or system human. As for the experimental part:
as §1

The test system of a further experiment is T3, GABA-B.
T3 construct: Caliper Lifescience
Put plainly: Radio-ligand binding assay, GABA-B. The following applies: 10 μM l-THBr; radioligand [3H]CGP 54626A. The procedure: as §1

For experiment [1], the system named is Glutamate, AMPA Site (Ionotropic). Put plainly: Radio-ligand binding assay, Glutamate AMPA site. The following applies: 10 μM l-THBr; radioligand [3H]AMPA. As for the experimental part:
as §1

Experiment [2] relates to Glutamate, Kainate Site (Ionotropic). As to the kind of experiment: Radio-ligand binding assay, Glutamate Kainate site. The note with it: 10 μM l-THBr; radioligand [3H]Kainic acid. As for the experimental part: as §1
Experiment [3] has as its system Glutamate, MK-801 (Ionotropic). As to the kind of experiment: Radio-ligand binding assay, Glutamate MK-801. The note with it: 10 μM l-THBr; radioligand [3H] MK-801. As for the experimental part: as §1
Experiment [4] concerns Glutamate, NMDA, Phencyclidine Site (Ionotropic). Put plainly: Radio-ligand binding assay, Glutamate NMDA phencyclidine site. The following applies: 10 μM l-THBr; radioligand [3H]TCP. The procedure:
as §1

A further experiment concerns T4, Serotonin, 5HT1D.
T4 construct: Caliper Lifescience
Put plainly: Radio-ligand binding assay, Serotonin 5HT1D. The following applies: 10 μM l-THBr; radioligand [3H]5-CT. The procedure:
as §1

The subject of a further experiment is T5, Serotonin, 5HT2C.
T5 construct: Caliper Lifescience
As to the kind of experiment: Radio-ligand binding assay, Serotonin 5HT2C. The following applies: 10 μM l-THBr; radioligand [3H]Mesulergine. As for the experimental part:
as §1

The test system of another experiment is T6, Serotonin, 5HT6 (h).
T6 construct: Caliper Lifescience
Put plainly: Radio-ligand binding assay, Serotonin 5HT6. The following applies: 10 μM l-THBr; radioligand [3H]-LSD. Details: species or system human. As for the experimental part:
as §1

For the next experiment, the system named is T7, Serotonin, 5HT7 (h).
T7 construct: Caliper Lifescience
As to the kind of experiment: Radio-ligand binding assay, Serotonin 5HT7. The note with it: 10 μM l-THBr. Set-up: species or system human. The procedure:
as §1

The target of another experiment is D1 receptor (Homo sapiens, UniProt P21728). Put plainly: cAMP assay for D1 receptor activity in CHO cells. The experiment is classed as cell-based. An excerpt:
Dopamine receptors can be categorized into two classes: Gαs protein coupled receptors (D1 and D5), or Gαi protein coupled receptors (D2, D3, and D4). Activation of D1 receptors can excite adenylate cyclase activity and increase cyclic adenosine monophosphate (cAMP). cAMP assays were used to determine the agonist or antagonist properties of l-THBr at the dopamine D1 receptor.
CHO K1 cells stably expressing D1 receptors were purchased from Genscript (Catalogue Number: M00247, Gene Number NM_000794). The cells were seeded in Ham’s F12 containing 10% fetal bovine serum and 200 μg/ml zeocin. On the day of the assay, 5 μl of cell suspension (3000 cells) was seeded on a 384-well plate. The assay was performed according to the manufacturer’s instructions. To test for agonist effects at the D1 receptor, the compounds (a known D1 agonist […] or l-THBr) were added from stocks two-fold more concentrated than the final concentration. […] After incubation (30 min at room temperature), 10 μL of HTRF reagents (cAMP-XL665 and anti-cAMP cryptate) were added. The signal was quantified after one hour of incubation at room temperature. The fluorescence intensity ratio (A665nm/A620nm x10^4) was calculated.

Experiment [5] concerns male CD-1 ICR mice. As to the kind of experiment: Locomotor activity test. It is filed as in vivo. The note with it: l-THBr 1, 5, or 10 mg/kg, i.p., 60 min. An excerpt:
The spontaneous activity video analysis system consists of 8 sound-attenuated chambers (40 cm × 40 cm × 65 cm) with a built-in infrared camera. (JL Behave, Shanghai Ji-Liang Software Technology Co., Ltd). During the behavioral tests, the experimenter was outside the testing room, and the chambers were cleaned between successive runs. Forty male CD-1 ICR mice were allowed to acclimate for three days in home cages and were handled for another three days to minimize stress after arrival in the animal facility. On the following day, after habituation to the activity chambers for 60 min, mice were administered vehicle, diazepam (DZP, 2 mg/kg, i.p.) or l–THBr (1, 5, or 10 mg/kg, i.p.) and immediately placed into the test chambers to record their locomotor activity for 60 min.

The subject of experiment [6] is male CD-1 ICR mice. As to the kind of experiment: Light-dark box test. It is filed as in vivo. The following applies: l-THBr 1 or 5 mg/kg i.p., 30 min before test, P < 0.05 vs vehicle. The text has this: The light-dark box test is a sensitive model to detect activity in disorders related to anxiety, based on the innate aversion of rodents to brightly lit areas and on their spontaneous exploratory behavior in response to a novel environment. The light-dark transition box is a polypropylene animal cage (44 cm × 21 cm × 21 cm), which is divided into two compartments, a light box (illuminated by a 60 W light source with 1000 lx light intensity) and a dark box. Forty-eight male CD-1 ICR mice were placed in the light box 30 min after l–THBr or DZP injection and allowed to move freely to both boxes for 5 min. The number of transitions between the two boxes were recorded by a video camera.

D1 receptor, sequence (P21728 whole entry): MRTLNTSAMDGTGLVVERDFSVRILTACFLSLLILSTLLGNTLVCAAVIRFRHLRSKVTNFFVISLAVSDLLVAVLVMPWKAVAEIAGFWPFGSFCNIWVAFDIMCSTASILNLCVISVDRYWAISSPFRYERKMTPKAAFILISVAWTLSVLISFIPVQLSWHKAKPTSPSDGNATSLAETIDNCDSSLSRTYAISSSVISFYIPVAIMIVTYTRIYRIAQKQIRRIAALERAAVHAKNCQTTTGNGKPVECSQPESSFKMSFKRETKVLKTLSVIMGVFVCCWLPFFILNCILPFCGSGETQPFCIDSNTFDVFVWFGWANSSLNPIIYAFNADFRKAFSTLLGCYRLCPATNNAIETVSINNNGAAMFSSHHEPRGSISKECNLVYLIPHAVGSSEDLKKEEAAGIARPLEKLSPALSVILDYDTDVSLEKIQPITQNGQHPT

In general, IC50 refers to the midpoint of a concentration-inhibition curve. Broadly, the inhibition is how much of the control response was suppressed. With `COc1ccc2c(c1O)CN1CCc3cc4c(cc3[C@@H]1C2)OCO4` [l-THBr, levo-tetrahydroberberrubine], the Activity result is given as “Yes (Significant binding affinity of l-THBr was defined as greater than 50% inhibition of ligand binding)” with Dopamine, D3; “Yes (Significant binding affinity of l-THBr was defined as greater than 50% inhibition of ligand binding)” with Dopamine, D4.4 (h); “Yes (Significant binding affinity of l-THBr was defined as greater than 50% inhibition of ligand binding)” with Serotonin, 5HT7 (h). For the same molecule, the Average inhibition percentage in the experiment with Dopamine, D3 (radioligand [3H]7-OH-DAPT) is given as 77.61%; with Dopamine, D4.4 (h) (radioligand [3H]-YM-09151-2), 79.55%; in the experiment with GABA-B, -6.94%; in experiment [1], 0.31%; in experiment [2], -0.89%; in experiment [3], 6.41%. Besides, the Average inhibition percentage in [4] is -12.74%; with Serotonin, 5HT1D it was 42.28%; with Serotonin, 5HT2C, 30.65%; in the experiment on Serotonin, 5HT6 (h), 22.79%; in the experiment with Serotonin, 5HT7 (h) (radioligand [3H]LSD), 54.82%. Further, inhibition against D1 receptor was half-maximal at 361 nM (IC50). The “dose-dependent increase in cAMP production (agonist effect)” value on D1 receptor (CHO cells stably expressing the D1 receptor, agonist test) is on record as “but not l-THBr induced a dose-dependent increase”. Moreover, at D1 receptor (CHO, read-out: maximum inhibition of cAMP production), the inhibition at 10 µM was 98.8%. Also, in the experiment with male CD-1 ICR mice [5], the “influence on locomotor activity (travel distance)” value is “no influence”. In the experiment with male CD-1 ICR mice [6], the “number of transitions between the light/dark sides” value is listed as “increased”.
